One assay addresses T1, M4 muscarinic receptor (Homo sapiens, UniProt P08173).
T1 construct: expressed in transfected cells; host or cells: CHO (M4-CHO)
T1 sequence (P08173 1-479): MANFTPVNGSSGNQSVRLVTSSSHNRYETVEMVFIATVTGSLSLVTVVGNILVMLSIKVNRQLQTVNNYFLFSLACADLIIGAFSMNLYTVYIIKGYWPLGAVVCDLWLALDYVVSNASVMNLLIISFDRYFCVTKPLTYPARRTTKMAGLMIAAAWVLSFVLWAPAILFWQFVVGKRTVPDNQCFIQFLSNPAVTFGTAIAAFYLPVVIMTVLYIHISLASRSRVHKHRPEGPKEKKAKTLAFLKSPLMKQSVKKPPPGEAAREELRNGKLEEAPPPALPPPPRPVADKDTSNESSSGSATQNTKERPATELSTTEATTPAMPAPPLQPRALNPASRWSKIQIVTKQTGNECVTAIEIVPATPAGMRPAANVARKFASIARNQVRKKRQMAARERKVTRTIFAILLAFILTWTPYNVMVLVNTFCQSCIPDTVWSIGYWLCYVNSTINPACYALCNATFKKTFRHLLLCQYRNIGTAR
Description: Functional mobilization of intracellular calcium (FLIPR) in M4-CHO cells. The conditions noted are these: M4 receptor, calcium mobilization; for Emax: read-out: M4 Efficacy. The format is cell-based. A digest of the protocol: (§1)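 Steps: seed M1- or M4-CHO cells 18-24 hrs ahead; load calcium dye with 1 mM probenecid; add test compound (0.5% DMSO final), either alone for agonism or 15 min before EC80 carbachol for inhibition; record FLIPR fluorescence for 60 sec.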
In general terms: Calcium assays in cells follow changes in intracellular calcium, usually with a dye or a luminescent sensor.

The target in the next assay is T2, M1 muscarinic receptor (Homo sapiens, UniProt P11229).
T2 construct: expressed in transfected cells; host or cells: CHO (M1-CHO)
T2 sequence (P11229 1-460): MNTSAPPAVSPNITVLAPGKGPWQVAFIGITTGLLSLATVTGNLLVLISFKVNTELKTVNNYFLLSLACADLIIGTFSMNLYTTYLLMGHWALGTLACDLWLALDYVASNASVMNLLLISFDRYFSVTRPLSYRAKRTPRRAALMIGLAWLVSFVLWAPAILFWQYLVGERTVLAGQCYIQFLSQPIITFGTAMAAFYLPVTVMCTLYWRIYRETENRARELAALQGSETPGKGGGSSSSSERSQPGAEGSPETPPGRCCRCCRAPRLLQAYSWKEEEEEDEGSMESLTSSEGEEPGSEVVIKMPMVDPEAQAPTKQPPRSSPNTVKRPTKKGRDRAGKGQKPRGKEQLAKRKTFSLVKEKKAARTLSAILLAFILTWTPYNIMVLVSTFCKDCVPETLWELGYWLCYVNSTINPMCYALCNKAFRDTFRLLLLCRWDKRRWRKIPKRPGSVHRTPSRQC
Put plainly: Functional mobilization of intracellular calcium (FLIPR) in M1-CHO cells. The format is cell-based. To be noted: M1 receptor, calcium mobilization; for Emax: read-out: M1 Efficacy. A digest of the protocol: as §1

With `CCOC(=O)N1CCC(CN2CCC3(CC2)C(=O)Nc2ccccc23)CC1` [compound 319], at M4 muscarinic receptor, the “M4 Activity” value was “x (activity was measured to be greater than 1.0 μM)” and the Emax was less than 65%. For the same compound, at M1 muscarinic receptor, the “M1 Activity” value is “xx (activity was measured to be between 0.1 μM and 1.0 μM)”; the Emax is less than 65%.
Consider `CC(C)OC(=O)N1C2CCC1CC(N1CCC3(CC1)COc1ccc(F)cc13)C2` (stereo not drawn) [compound 320], for which, at M4 muscarinic receptor, the “M4 Activity” value is reported as “x (activity was measured to be greater than 1.0 μM)” and the Emax is less than 65%. Moreover, at M1 muscarinic receptor, the “M1 Activity” value is “xx (activity was measured to be between 0.1 μM and 1.0 μM)”; the Emax fell in the range of 65 to 85%.
As for `CCOC(=O)N1CCC(N2CCC3(CC2)CN(C(=O)c2ccno2)c2ccc(F)cc23)CC1` [compound 321], at M4 muscarinic receptor, the “M4 Activity” value is “x (activity was measured to be greater than 1.0 μM)” and the Emax fell in the range of 65 to 85%. At M1 muscarinic receptor, the “M1 Activity” value was “xx (activity was measured to be between 0.1 μM and 1.0 μM)”; the Emax was 65 to 85%.
For `CCOC(=O)N1C2CCC1CC(N1CCC3(CC1)CN(C(C)=O)c1c(F)cccc13)C2` (stereo not drawn) [compound 322], at M4 muscarinic receptor, the “M4 Activity” value is recorded as “xxx (activity was measured to be less than 0.1 μM)” and the Emax was greater than 85%. Further, at M1 muscarinic receptor, the “M1 Activity” value was “xx (activity was measured to be between 0.1 μM and 1.0 μM)”; the Emax was less than 65%.
On to `CC(=O)N[C@@H]1CC2(CCN([C@@H]3C[C@H]4CC[C@@H]3C4)CC2)c2ccccc21` [compound 323], for which, on M4 muscarinic receptor, the “M4 Activity” value is reported as “x (activity was measured to be greater than 1.0 μM)” and the Emax lay within 65 to 85%. At M1 muscarinic receptor, the “M1 Activity” value is “xx (activity was measured to be between 0.1 μM and 1.0 μM)”; the Emax is 65 to 85%.
For the compound `CCCC(=O)N1CC2(CCN(C3CCN(C(=O)OCC)CC3)CC2)c2cc(F)ccc21` [compound 324], on M4 muscarinic receptor, the “M4 Activity” value is recorded as “x (activity was measured to be greater than 1.0 μM)” and the Emax is 65 to 85%. At M1 muscarinic receptor, the “M1 Activity” value was “xx (activity was measured to be between 0.1 μM and 1.0 μM)”; the Emax was 65 to 85%.
For `Fc1ccc2c(c1)C1(CCN(C3CCCCC3)CC1)CN2` [compound 325], at M4 muscarinic receptor, the “M4 Activity” value is given as “x (activity was measured to be greater than 1.0 μM)” and the Emax was less than 65%. On M1 muscarinic receptor, the “M1 Activity” value is recorded as “x (activity was measured to be greater than 1.0 μM)” and the Emax lay within 65 to 85%.
As for `CCOC(=O)N[C@H]1CC2(CCN(C[C@H]3C[C@H]4CC[C@H]3C4)CC2)c2ccccc21` [compound 326], at M4 muscarinic receptor, the “M4 Activity” value is on record as “x (activity was measured to be greater than 1.0 μM)” and the Emax was less than 65%. At M1 muscarinic receptor, the “M1 Activity” value is recorded as “x (activity was measured to be greater than 1.0 μM)” and the Emax was less than 65%.
For `CCOC(=O)N1CCC(CN2CCC3(CC2)C(=O)N(C)c2ccccc23)CC1` [compound 327], on M4 muscarinic receptor, the “M4 Activity” value is “x (activity was measured to be greater than 1.0 μM)” and the Emax was less than 65%. Moreover, on M1 muscarinic receptor, the “M1 Activity” value is “x (activity was measured to be greater than 1.0 μM)” and the Emax was less than 65%.
For the compound `CCCC1CCC(N2CCC3(CC2)CNc2ccc(F)cc23)CC1` (stereo not drawn) [compound 328], on M4 muscarinic receptor, the “M4 Activity” value is reported as “x (activity was measured to be greater than 1.0 μM)” and the Emax lay in the range of 65 to 85%. Besides, on M1 muscarinic receptor, the “M1 Activity” value is “xx (activity was measured to be between 0.1 μM and 1.0 μM)”; the Emax was less than 65%.
Take `CCCOC(=O)N1C2CCC1CC(N1CCC3(CC1)CN(C(=O)OC1CCC1)c1ccc(F)cc13)C2` (stereo not drawn) [compound 329]: on M4 muscarinic receptor, the “M4 Activity” value is recorded as “x (activity was measured to be greater than 1.0 μM)” and the Emax is less than 65%. Moreover, at M1 muscarinic receptor, the “M1 Activity” value is reported as “xxx (activity was measured to be less than 0.1 μM)” and the Emax fell in the range of 65 to 85%.
Consider `CCOC(=O)N1CCC(N2CCC3(CC2)CN(C(=O)c2ccc(C)cc2)c2ccc(F)cc23)CC1` [compound 330], for which, on M4 muscarinic receptor, the “M4 Activity” value was “x (activity was measured to be greater than 1.0 μM)” and the Emax is less than 65%. On M1 muscarinic receptor, the “M1 Activity” value is reported as “x (activity was measured to be greater than 1.0 μM)” and the Emax was less than 65%.
Turning to `CCOC(=O)N1CCC(N2CCC3(CC2)CN(C(=O)c2ccccn2)c2ccc(F)cc23)CC1` [compound 331], at M4 muscarinic receptor, the “M4 Activity” value is recorded as “x (activity was measured to be greater than 1.0 μM)” and the Emax was less than 65%. Further, at M1 muscarinic receptor, the “M1 Activity” value was “xx (activity was measured to be between 0.1 μM and 1.0 μM)”; the Emax was less than 65%.
For `CCOC(=O)N1C2CCC1CC(CN1CCC3(CC1)CNc1ccc(C)cc13)C2` (stereo not drawn) [compound 332], at M4 muscarinic receptor, the “M4 Activity” value is “x (activity was measured to be greater than 1.0 μM)” and the Emax was less than 65%. In addition, at M1 muscarinic receptor, the “M1 Activity” value is given as “x (activity was measured to be greater than 1.0 μM)” and the Emax is less than 65%.
On to `Clc1ccc2c(c1)C1(CCN(C3CCCCCC3)CC1)CN2` [compound 333], for which, on M4 muscarinic receptor, the “M4 Activity” value was “x (activity was measured to be greater than 1.0 μM)” and the Emax is less than 65%. At M1 muscarinic receptor, the “M1 Activity” value is reported as “x (activity was measured to be greater than 1.0 μM)” and the Emax is less than 65%.
Take `CCCC1CCC(N2CCC3(CC2)CNc2ccccc23)CC1` (stereo not drawn) [compound 334]: at M4 muscarinic receptor, the “M4 Activity” value is recorded as “x (activity was measured to be greater than 1.0 μM)” and the Emax is less than 65%. For the same compound, on M1 muscarinic receptor, the “M1 Activity” value is on record as “x (activity was measured to be greater than 1.0 μM)” and the Emax is less than 65%.
`CCOC(=O)N1CCC(N2CCC3(CC2)CN(C(=O)c2cc(C)oc2C)c2ccc(F)cc23)CC1` [compound 335]: on M4 muscarinic receptor, the “M4 Activity” value is listed as “x (activity was measured to be greater than 1.0 μM)” and the Emax is less than 65%. For the same compound, on M1 muscarinic receptor, the “M1 Activity” value is recorded as “x (activity was measured to be greater than 1.0 μM)” and the Emax was less than 65%.
For `O=C(O[C@@H]1CCOC1)N1C2CCC1CC(N1CCC3(CC1)C(=O)Nc1ccccc13)C2` (stereo partly drawn) [compound 336], at M4 muscarinic receptor, the “M4 Activity” value is listed as “x (activity was measured to be greater than 1.0 μM)” and the Emax is less than 65%. At M1 muscarinic receptor, the “M1 Activity” value is recorded as “x (activity was measured to be greater than 1.0 μM)” and the Emax was less than 65%.
`CC(=O)N[C@H]1CC2(CCN(C3CC4CCC(C4)C3)CC2)c2ccccc21` (stereo partly drawn) [compound 337]: on M4 muscarinic receptor, the “M4 Activity” value is given as “x (activity was measured to be greater than 1.0 μM)” and the Emax was less than 65%. On M1 muscarinic receptor, the “M1 Activity” value was “x (activity was measured to be greater than 1.0 μM)” and the Emax is less than 65%.
Consider `O=C(O[C@@H]1CCOC1)N1C2CCC1CC(N1CCC3(CC1)COc1ccc(F)cc13)C2` (stereo partly drawn) [compound 338], for which, at M4 muscarinic receptor, the “M4 Activity” value is given as “x (activity was measured to be greater than 1.0 μM)” and the Emax is less than 65%. Further, on M1 muscarinic receptor, the “M1 Activity” value is “x (activity was measured to be greater than 1.0 μM)” and the Emax was less than 65%.
Regarding `CC(=O)N(C)[C@@H]1CC2(CCN(C[C@H]3C[C@H]4CC[C@H]3C4)CC2)c2ccccc21` [compound 339], at M4 muscarinic receptor, the “M4 Activity” value was “x (activity was measured to be greater than 1.0 μM)” and the Emax was less than 65%. Also, on M1 muscarinic receptor, the “M1 Activity” value is “x (activity was measured to be greater than 1.0 μM)” and the Emax was less than 65%.
With `CCOC(=O)N1CCC(N2CCC3(CC2)CN(C(C)=O)c2ccc(OC)cc23)CC1` [compound 340], at M4 muscarinic receptor, the “M4 Activity” value was “x (activity was measured to be greater than 1.0 μM)” and the Emax is less than 65%. For the same compound, at M1 muscarinic receptor, the “M1 Activity” value is “xx (activity was measured to be between 0.1 μM and 1.0 μM)”; the Emax was less than 65%.
Turning to `CCCC1CCC(N2CCC3(CC2)CNc2ccc(Cl)cc23)CC1` (stereo not drawn) [compound 341], at M4 muscarinic receptor, the “M4 Activity” value was “x (activity was measured to be greater than 1.0 μM)” and the Emax was less than 65%. On M1 muscarinic receptor, the “M1 Activity” value was “x (activity was measured to be greater than 1.0 μM)” and the Emax was less than 65%.
For the compound `c1ccc2c(c1)NCC21CCN(CC2CCCCC2)CC1` [compound 342], at M4 muscarinic receptor, the “M4 Activity” value was “xx (activity was measured to be between 0.1 μM and 1.0 μM)”; the Emax is 65 to 85%. For the same compound, on M1 muscarinic receptor, the “M1 Activity” value is “xxx (activity was measured to be less than 0.1 μM)” and the Emax is 65 to 85%.
